This is an account of results in patent US20090163586A1, “Bis-(Sulfonylamino) Derivatives in Therapy 205” (AstraZeneca AB, priority 2007, published 2009).

The experiment addresses T1, human mPGES-1 (Homo sapiens, UniProt O14684).
T1 sequence (O14684 1-152): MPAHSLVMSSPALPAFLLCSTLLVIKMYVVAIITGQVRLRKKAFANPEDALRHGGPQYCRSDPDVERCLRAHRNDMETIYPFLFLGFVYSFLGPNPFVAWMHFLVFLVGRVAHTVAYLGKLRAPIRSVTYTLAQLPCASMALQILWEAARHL
Briefly: Microsomal prostaglandin E synthase biochemical assay. The settings on record: microsome preparation containing human mPGES-1; PGH2 10.8 μM, GSH 2.5 mM, pH 6.8; PGE2 by HTRF; average of at least n=2. The procedure, abridged: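 Human mPGES-1 microsomes at 2 μg/mL were pre-incubated 15 min with compound (60 μM to 0.002 μM) in 50 mM potassium phosphate pH 6.8 with 2.5 mM GSH. The reaction was started with 10.8 μM PGH2 and stopped after 1 minute with acidic ferric chloride/citrate. PGE2 was quantified by HTRF; IC50 is the mean of at least 2 runs.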
For orientation: TR-FRET usually uses a lanthanide donor and a delayed reading to cut background.

One may read the IC50 as the point on the concentration scale where inhibition reaches its midpoint. Lower therefore signals higher potency. The molecule `COc1cc(Cl)ccc1CCS(=O)(=O)Nc1ccncc1S(N)(=O)=O` [Example 206, 4-(2-(4-Chloro-2-methoxyphenyl)ethylsulfonamido)pyridine-3-sulfonamide] had an IC50 of 9.1 µM.
The molecule `NS(=O)(=O)c1ccccc1NS(=O)(=O)/C=C/c1ccc(C2=CCCC2)cc1` [Example 207, (E)-2-(2-(4-Cyclopentenylphenyl)vinylsulfonamido)benzenesulfonamide] came in with a 50% inhibitory concentration (IC50) of 0.097 µM.
For `CC(C)(C)C#Cc1ccc(/C=C/S(=O)(=O)Nc2ccccc2S(N)(=O)=O)cc1` [Example 208, (E)-2-(2-(4-(3,3-Dimethylbut-1-ynyl)phenyl)vinylsulfonamido)benzenesulfonamide] the value was 0.055 µM; for `CC(C)(O)C#Cc1ccc(/C=C/S(=O)(=O)Nc2ccccc2S(N)(=O)=O)cc1` [Example 209, (E)-2-(2-(4-(3-Hydroxy-3-methylbut-1-ynyl)phenyl)vinylsulfonamido)benzenesulfonamide], 0.22 µM; for `Cc1ccc(NS(=O)(=O)CCc2ccc(C#CC(C)(C)C)cc2)c(S(N)(=O)=O)c1` [Example 210, 2-{2-[4-(3,3-Dimethyl-but-1-ynyl)-phenyl]-ethanesulfonylamino}-5-methyl-benzenesulfonamide], 0.36 µM.
Turning to `CC(C)(C)C#Cc1ccc(CCS(=O)(=O)Nc2ccc(CO)cc2S(N)(=O)=O)cc1` [Example 211, 2-{2-[4-(3,3-Dimethyl-but-1-ynyl)-phenyl]-ethanesulfonylamino}-5-hydroxymethyl-benzenesulfonamide], the IC50 was found to be 0.075 µM.
In the case of `NS(=O)(=O)c1cc(CO)ccc1NS(=O)(=O)CCc1ccc(C#CC2CCCC2)cc1` [Example 212, 2-[2-(4-Cyclopentylethynyl-phenyl)-ethanesulfonylamino]-5-hydroxymethyl-benzenesulfonamide], the IC50 was found to be 0.041 µM.
To `COc1cc(Cl)ccc1CCS(=O)(=O)Nc1ccc(CO)cc1S(N)(=O)=O` [Example 213, 2-[2-(4-Chloro-2-methoxy-phenyl)-ethanesulfonylamino]-5-hydroxymethyl-benzenesulfonamide] belongs 0.33 µM; to `CC(C)(C)C#Cc1ccc(CCS(=O)(=O)Nc2ccsc2S(N)(=O)=O)cc1` [Example 214, 3-{2-[4-(3,3-Dimethyl-but-1-ynyl)-phenyl]-ethanesulfonylamino}-thiophene-2-sulfonic acid amide], 1.4 µM; to `COc1ncc(-c2cccc(S(=O)(=O)Nc3ccsc3S(N)(=O)=O)c2)cc1Cl` [Example 215, 3-[3-(5-Chloro-6-methoxy-pyridin-3-yl)-benzenesulfonylamino]-thiophene-2-sulfonic acid amide], 0.74 µM.
To `NS(=O)(=O)c1ccccc1NS(=O)(=O)/C=C/c1ccc(OC(F)(F)C(F)F)cc1` [Example 216, (E)-2-(2-(4-(1,1,2,2-tetrafluoroethoxy)phenyl)vinylsulfonamido)benzenesulfonamide] belongs 0.13 µM; to `NS(=O)(=O)c1ccccc1NS(=O)(=O)/C=C/c1ccccc1OC(F)F` [Example 217, (E)-2-(2-(2-(difluoromethoxy)phenyl)vinylsulfonamido)benzenesulfonamide], 0.11 µM; to `NS(=O)(=O)c1ccccc1NS(=O)(=O)/C=C/c1ccc(-c2ccc(C(F)(F)F)cc2)cc1` [Example 218, (E)-2-(2-(4′-(trifluoromethyl)biphenyl-4-yl)vinylsulfonamido)benzenesulfonamide], 0.18 µM.
To `CC(C)Oc1ccccc1/C=C/S(=O)(=O)Nc1ccccc1S(N)(=O)=O` [Example 219, (E)-2-(2-(2-isopropoxyphenyl)vinylsulfonamido)benzenesulfonamide] belongs 0.95 µM.
Consider `CSc1ccccc1/C=C/S(=O)(=O)Nc1ccccc1S(N)(=O)=O` [Example 220, (E)-2-(2-(2-(methylthio)phenyl)vinylsulfonamido)benzenesulfonamide], for which the half-maximal inhibitory concentration (IC50) was 0.27 µM.
For `NS(=O)(=O)c1ccccc1NS(=O)(=O)/C=C/c1ccccc1OC(F)(F)F` [Example 221, (E)-2-(2-(2-(trifluoromethoxy)phenyl)vinylsulfonamido)benzenesulfonamide] the value was 0.42 µM; for `CCOc1ccccc1/C=C/S(=O)(=O)Nc1ccccc1S(N)(=O)=O` [Example 222, 2-[2-(2-ethoxy-phenyl)-ethenesulfonylamino]-benzenesulfonamide], 0.38 µM; for `NS(=O)(=O)c1ccccc1NS(=O)(=O)CCc1ccc(OC(F)(F)C(F)F)cc1` [Example 223, 2-(2-(4-(1,1,2,2-tetrafluoroethoxy)phenyl)ethylsulfonamido)benzenesulfonamide], 0.42 µM.
To `NS(=O)(=O)c1ccccc1NS(=O)(=O)CCc1ccc(-c2ccc(C(F)(F)F)cc2)cc1` [Example 224, 2-(2-(4′-(trifluoromethyl)biphenyl-4-yl)ethylsulfonamido)benzenesulfonamide] belongs 0.1 µM; to `NS(=O)(=O)c1ccccc1NS(=O)(=O)/C=C/c1ccccc1O` [Example 225, 2-[2-(2-Hydroxy-phenyl)-ethenesulfonylamino]-benzenesulfonamide], 6.3 µM.
For `NS(=O)(=O)c1ccc(Cl)cc1NS(=O)(=O)CCc1ccc(OC(F)F)cc1` [Example 226, 4-Chloro-2-(2-(4-(difluoromethoxy)phenyl)ethylsulfonamido)benzenesulfonamide] the value was 1.3 µM; for `COc1ccccc1CCS(=O)(=O)Nc1cc(Cl)ccc1S(N)(=O)=O` [Example 227, 4-Chloro-2-(2-(2-methoxyphenyl)ethylsulfonamido)benzenesulfonamide], 1.9 µM.
`COc1cc(Cl)ccc1CCS(=O)(=O)Nc1cc(Cl)ccc1S(N)(=O)=O` [Example 228, 4-Chloro-2-(2-(4-chloro-2-methoxyphenyl)ethylsulfonamido)benzenesulfonamide]: the half-inhibitory concentration (IC50) was found to be 0.13 µM.
Consider `NS(=O)(=O)c1cc(F)cc(F)c1NS(=O)(=O)CCc1ccc(Cl)c(Cl)c1` [Example 229, 2-(2-(3,4-Dichlorophenyl)ethylsulfonamido)-3,5-difluorobenzenesulfonamide], for which it took 5.5 µM to reach half-maximal inhibition (IC50).
To `COc1cc(NS(=O)(=O)c2cccc(Cl)c2Cl)c(S(N)(=O)=O)cc1F` [Example 230, 2,3-Dichloro-N-(4-fluoro-5-methoxy-2-sulfamoylphenyl)benzenesulfonamide] belongs 6.1 µM.
To `NS(=O)(=O)c1ccc(Cl)cc1NS(=O)(=O)CCc1ccc(Cl)c(Cl)c1` [Example 231, 4-Chloro-2-(2-(3,4-dichlorophenyl)ethylsulfonamido)benzenesulfonamid] belongs 0.13 µM; to `NS(=O)(=O)c1cc(Cl)c(F)cc1NS(=O)(=O)CCc1ccc(Cl)cc1` [Example 232, 5-Chloro-2-(2-(4-chlorophenyl)ethylsulfonamido)-4-fluorobenzenesulfonamide], 0.87 µM; to `NS(=O)(=O)c1cc(Cl)c(F)cc1NS(=O)(=O)CCc1ccc(Cl)c(Cl)c1` [Example 233, 5-Chloro-2-(2-(3,4-dichlorophenyl)ethylsulfonamido)-4-fluorobenzenesulfonamide], 0.15 µM.
Turning to `NS(=O)(=O)c1c(NS(=O)(=O)CCc2ccc(-c3ccco3)cc2)ccc2c1CCC2` [Example 234, 5-(2-(4-(Furan-2-yl)phenyl)ethylsulfonamido)-2,3-dihydro-1H-indene-4-sulfonamide], 6.2 µM corresponded to half-maximal inhibition (IC50).
Molecule `NS(=O)(=O)c1cc2c(cc1NS(=O)(=O)CCc1ccc(-c3ccco3)cc1)CCC2` [Example 235, 6-(2-(4-(Furan-2-yl)phenyl)ethylsulfonamido)-2,3-dihydro-1H-indene-5-sulfonamid] gave an IC50 of 6.2 µM.
To `NS(=O)(=O)c1c(NS(=O)(=O)CCc2ccc(Cl)c(Cl)c2)ccc2c1CCC2` [Example 236, 5-(2-(3,4-Dichlorophenyl)ethylsulfonamido)-2,3-dihydro-1H-indene-4-sulfonamide] belongs 4.6 µM; to `CNS(=O)(=O)c1ccccc1NS(=O)(=O)c1cccc(-c2ccc(Cl)c(Cl)c2)c1` [Example 239, 2-[[3-(3,4-Dichlorophenyl)phenyl]sulfonylamino]-N-methyl-benzenesulfonamide], 6.06 µM; to `NS(=O)(=O)c1ccccc1NS(=O)(=O)CCc1ccc(C#Cc2ccc(C(F)(F)F)cc2)nc1` [Example 240, 2-(2-(6-((4-(Trifluoromethyl)phenyl)ethynyl)pyridin-3-yl)ethylsulfonamido)benzenesulfonamide], 0.031 µM.
